For the assay, the system named is P388 leukemia ip, CD2F1 mice, survival T/C. The assay is described as follows: NCI In Vivo Anticancer Drug Screen. Data for tumor model P388 Leukemia (intraperitoneal) in CD2F1 (CDF1) mice. The following applies: endpoint: median survival time, higher = longer survival. In a few lines: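 Mice carrying the transplanted tumor received test compound or vehicle. Survival was recorded in each group, and the value is the treated-group measurement divided by that of the vehicle-treated control group.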

Where [1] appears, read: dose: 25.0 mg/kg/injection, schedule: Q01DX005 (ip), vehicle: saline with Tween-80.
Setting [2] is: dose: 50.0 mg/kg/injection, schedule: Q01DX005 (ip), vehicle: saline with Tween-80.
The mark [3] stands for this setting: dose: 60.0 mg/kg/injection, schedule: Q01DX005 (ip), vehicle: saline with Tween-80.
Setting [4] is: dose: 120.0 mg/kg/injection, schedule: Q01DX005 (ip), vehicle: saline with Tween-80.
Setting [5] is: dose: 50.0 mg/kg/injection, schedule: Q01DX005 (ip), vehicle: Klucel (hydroxypropylcellulose) (HPC).
Setting [6] is: dose: 100.0 mg/kg/injection, schedule: Q01DX005 (ip), vehicle: Klucel (hydroxypropylcellulose) (HPC).
The mark [7] stands for this setting: dose: 200.0 mg/kg/injection, schedule: Q01DX005 (ip), vehicle: Klucel (hydroxypropylcellulose) (HPC).
Where [8] appears, read: dose: 12.5 mg/kg/injection, schedule: Q01DX005 (ip), vehicle: saline with Tween-80.
Where [9] appears, read: dose: 100.0 mg/kg/injection, schedule: Q01DX005 (ip), vehicle: saline with Tween-80.
Where [10] appears, read: dose: 200.0 mg/kg/injection, schedule: Q01DX005 (ip), vehicle: saline with Tween-80.
The mark [11] stands for this setting: dose: 50.0 mg/kg/injection, schedule: Q01DX009 (ip), vehicle: saline.
[12] abbreviates: dose: 100.0 mg/kg/injection, schedule: Q01DX009 (ip), vehicle: saline.
[13] abbreviates: dose: 25.0 mg/kg/injection, schedule: Q01DX005 (ip), vehicle: Klucel (hydroxypropylcellulose) (HPC).

This passage reports T/C results from PubChem BioAssay AID330 (DTP/NCI, 2004).

Toxic doses and inconclusive results are not listed.

Turning to `NC(N)=NC(N)=Nc1ccc2c(Cl)c(Cl)ccc2c1`, the T/C was 96 % of control (dose: 6.0 mg/kg/injection, schedule: Q01DX005 (ip), vehicle: saline with Tween-80); 111 % of control (dose: 12.0 mg/kg/injection, schedule: Q01DX005 (ip), vehicle: saline with Tween-80); 104 % of control (dose: 22.0 mg/kg/injection, schedule: Q04DX003 (ip), vehicle: saline with Tween-80); 104 % of control under setting [1]; 120 % of control (dose: 25.0 mg/kg/injection, schedule: Q04DX003 (ip), vehicle: saline with Tween-80); 100 % of control (dose: 33.0 mg/kg/injection, schedule: Q04DX003 (ip), vehicle: saline with Tween-80). In addition, the T/C under setting [2] was 93 % of control and the T/C (dose: 50.0 mg/kg/injection, schedule: Q04DX003 (ip), vehicle: saline with Tween-80) is 118 % of control.
For `COC(=O)C(=O)C1CCc2c(C(=O)OC)nc3[nH]n(-c4ccccc4)c(=O)c3c21` (stereo not drawn), the T/C by setting is: under setting [3], 111 % of control; under setting [4], 94 % of control; (dose: 240.0 mg/kg/injection, schedule: Q01DX005 (ip), vehicle: saline with Tween-80) 88 % of control.
For the molecule `CCOC(=O)CCN(CCC(=O)OCC)c1ccccn1`, the T/C under setting [5] is 105 % of control, the T/C under setting [6] was 99 % of control and the T/C under setting [7] is 101 % of control.
For `O=c1[nH]c2cc(Cl)ccc2nc1/C=C(\O)c1ccc(N2CCN(c3ccc(/C(O)=C/c4nc5ccc(Cl)cc5[nH]c4=O)cc3)CC2)cc1`, the T/C (dose: 60.0 mg/kg/injection, schedule: Q01DX005 (ip), vehicle: Klucel + Tween-80) was 98 % of control; the T/C (dose: 120.0 mg/kg/injection, schedule: Q01DX005 (ip), vehicle: Klucel + Tween-80) is 93 % of control; the T/C (dose: 240.0 mg/kg/injection, schedule: Q01DX005 (ip), vehicle: Klucel + Tween-80) is 86 % of control.
On to `C=C(CC(O)(C(F)(F)F)C(F)(F)F)CC(O)(C(F)(F)F)C(F)(F)F`, for which the T/C is 102 % of control (dose: 3.13 mg/kg/injection, schedule: Q01DX005 (ip), vehicle: saline with Tween-80); 104 % of control (dose: 6.25 mg/kg/injection, schedule: Q01DX005 (ip), vehicle: saline with Tween-80); 99 % of control (dose: 12.5 mg/kg/injection, schedule: Q01DX001 (ip), vehicle: saline with Tween-80); 107 % of control under setting [8]; 99 % of control (dose: 25.0 mg/kg/injection, schedule: Q01DX001 (ip), vehicle: saline with Tween-80).
In the case of `NC(=S)n1nc(-c2ccccc2)c(N=Nc2ccccc2Cl)c1-c1ccccc1`, the T/C was 117 % of control under setting [2], 111 % of control under setting [9] and 108 % of control under setting [10].
Regarding `c1ccc(Sc2ncccn2)nc1`, the T/C runs as follows: under setting [11], 108 % of control; under setting [12], 115 % of control.
For the molecule `COc1ccc(/C=C/C(=O)C(CN(C)C)CN(C)C)cc1`, the T/C by setting is: (dose: 1.56 mg/kg/injection, schedule: Q01DX005 (ip), vehicle: saline) 109 % of control; (dose: 3.12 mg/kg/injection, schedule: Q01DX005 (ip), vehicle: saline) 96 % of control; (dose: 6.25 mg/kg/injection, schedule: Q01DX005 (ip), vehicle: saline) 106 % of control.
On to `CC1(C)C2C=CC(OC2=O)C1(C)NC(=O)OCc1ccccc1` (stereo not drawn), for which the T/C by setting is: under setting [11], 96 % of control; under setting [12], 98 % of control; (dose: 200.0 mg/kg/injection, schedule: Q01DX009 (ip), vehicle: saline) 99 % of control.
As to `COc1cccc2c1C(=O)c1c(O)c3c(c(O)c1C2=O)CC(O)(C1(O)CSC(C)=N1)CC3O` (stereo not drawn), the T/C reads like this: (dose: 1.56 mg/kg/injection, schedule: Q01DX009 (ip), vehicle: other) 102 % of control; (dose: 3.13 mg/kg/injection, schedule: Q01DX009 (ip), vehicle: other) 104 % of control; (dose: 6.25 mg/kg/injection, schedule: Q01DX009 (ip), vehicle: other) 104 % of control; (dose: 12.5 mg/kg/injection, schedule: Q01DX009 (ip), vehicle: other) 105 % of control; (dose: 25.0 mg/kg/injection, schedule: Q01DX009 (ip), vehicle: other) 98 % of control; (dose: 25.0 mg/kg/injection, schedule: Q01DX009 (ip), vehicle: water) 101 % of control. The T/C (dose: 50.0 mg/kg/injection, schedule: Q01DX009 (ip), vehicle: water) is 101 % of control and the T/C (dose: 100.0 mg/kg/injection, schedule: Q01DX009 (ip), vehicle: water) was 121 % of control.
In the case of `Cc1ccc(C(=O)Nc2ccccn2)cc1`, the T/C runs as follows: (dose: 50.0 mg/kg/injection, schedule: Q01DX009 (ip), vehicle: Klucel (hydroxypropylcellulose) (HPC)) 100 % of control; (dose: 100.0 mg/kg/injection, schedule: Q01DX009 (ip), vehicle: Klucel (hydroxypropylcellulose) (HPC)) 93 % of control; (dose: 200.0 mg/kg/injection, schedule: Q01DX009 (ip), vehicle: Klucel (hydroxypropylcellulose) (HPC)) 100 % of control.
With `COc1cc2c(c3c1c(=O)c1ccccc1n3C)C=CC(C)(C)O2`, the T/C (dose: 7.5 mg/kg/injection, schedule: Q01DX009 (ip), vehicle: saline with Tween-80) is 99 % of control; the T/C under setting [8] is 92 % of control; the T/C (dose: 15.0 mg/kg/injection, schedule: Q01DX009 (ip), vehicle: saline with Tween-80) is 98 % of control; the T/C under setting [13] was 97 % of control; the T/C under setting [1] was 92 % of control; the T/C (dose: 30.0 mg/kg/injection, schedule: Q01DX009 (ip), vehicle: saline with Tween-80) was 103 % of control. For the same molecule, the T/C is, setting by setting: under setting [5], 112 % of control; under setting [2], 112 % of control; under setting [6], 118 % of control; under setting [9], 113 % of control.
In the case of `CN1C(=O)N(C)C(=O)C(Nc2ccc([N+](=O)[O-])cc2)(SCCO)C1=O`, the T/C was 100 % of control under setting [2], 104 % of control under setting [9] and 104 % of control under setting [10].
As for `CC1CC[P+](C)(c2ccccc2)c2ccccc21` (stereo not drawn), the T/C is 100 % of control (dose: 6.25 mg/kg/injection, schedule: Q04DX002 (ip), vehicle: saline) and 103 % of control (dose: 12.5 mg/kg/injection, schedule: Q04DX002 (ip), vehicle: saline).
`CS(=O)(=O)OCCN(CCOS(C)(=O)=O)c1cccc(Cl)c1`: the T/C runs as follows: (dose: 1.25 mg/kg/injection, schedule: Q01DX009 (ip), vehicle: other) 95 % of control; (dose: 2.5 mg/kg/injection, schedule: Q01DX009 (ip), vehicle: other) 122 % of control; (dose: 10.0 mg/kg/injection, schedule: Q01DX009 (ip), vehicle: other) 186 % of control.
With `CC(SC(C)C(=O)O)C(=O)O` (stereo not drawn), the T/C is, setting by setting: (dose: 100.0 mg/kg/injection, schedule: Q04DX002 (ip), vehicle: saline) 97 % of control; (dose: 200.0 mg/kg/injection, schedule: Q04DX002 (ip), vehicle: saline) 109 % of control.
For `CCOC1=NC2(c3ccccc3)c3ccccc3SC12C` (stereo not drawn), the T/C under setting [5] was 98 % of control, the T/C under setting [6] is 100 % of control and the T/C under setting [7] is 93 % of control.
`Cc1cc2cc3n(c2nn1)N=C(Cl)CC3`: the T/C by setting is: under setting [3], 86 % of control; under setting [4], 101 % of control.
Consider `O=C(Nc1ccc(Cc2ccc(NC(=O)C(c3ccccc3)c3ccccc3)cc2)cc1)C(c1ccccc1)c1ccccc1`, for which the T/C runs as follows: under setting [2], 86 % of control; under setting [9], 95 % of control; under setting [10], 92 % of control.
For `C=C1C(=O)OC2/C=C(\CO)C3OC3C3OC3(C)CC(OC(=O)/C(=C/C)COC(C)=O)C12` (stereo not drawn), the T/C under setting [13] was 98 % of control and the T/C under setting [5] is 114 % of control.
For `COc1ccccc1OCC(O)CNc1ccc(Cl)cc1C(=O)c1ccccc1Cl` (stereo not drawn), the T/C is 90 % of control under setting [2], 90 % of control under setting [9] and 88 % of control under setting [10].
`CCNc1nc(NC(C)C)nc(N2CCc3ccccc3C2)n1`: the T/C reads like this: under setting [2], 106 % of control; under setting [9], 117 % of control; under setting [10], 110 % of control.
In the case of `CCc1c(C)sc(=S)n1C(C)C(=O)OC` (stereo not drawn), the T/C was 98 % of control under setting [2], 106 % of control under setting [9] and 107 % of control under setting [10].
